{"source": "patent US20230225999A1", "about": "“A NUTRITIONAL COMPOSITION COMPRISING 3-HYDROXYBUTYRIC ACID TO IMPROVE THE GASTROINTESTINAL BARRIER” (priority 2020, published 2023)", "test_system": "co-culture cell-line model of intestinal epithelial cells containing Caco-2 and HT29-MTX cells", "assay": "Direct effect of 3-hydroxybutyric acid on inflammation-induced epithelial barrier dysfunction (FD4 translocation)", "format": "cell-based, human", "conditions": "10 μM apical, 36 hours pre-treatment, then TNF-α (2.5 ng/ml) and IFN-γ (10 ng/ml) for 48 hours", "method": "The human Caco-2 and HT29-MTX cell lines were obtained from the American Type Culture Collection (ATCC) and the European Collection of Authenticated Cell Cultures (ECACC), respectively. Caco-2 cell and HT29-MTX were maintained separately in culture flasks at 37° C. under humidified 10% CO2 atmosphere in Dulbecco's […] (DMEM) supplemented with GlutaMAX (Invitrogen), 1% […], 100 μg/ml streptomycin, 100 UI/ml penicillin and heat inactivated fetal bovine serum (FBS; 15% for Caco-2 and 10% for HT29-MTX). To make co-culture for epithelial barrier studies, each cell lines were expanded in their respective flasks until 90% confluent monolayers were reached. Cell lines are then trypsinized with 1× trypsin. Co-culture of Caco-2 and HT29-MTX were seeded at 6×10^4/cm^2 on 1.12 cm^2 Transwell Polycarbonate semi-permeable membranes (0.4 μm) and grown in DMEM supplemented with GlutaMAX, 1% minimum essential media, 100 μg/ml streptomycin, 100 UI/ml penicillin and 10% heat inactivated FBS for 21 days. […] At the end of the experiment, translocation of the FITC-labeled dextran (4000 Da) from the apical to basolateral compartment was quantified within a 2-hour period. FD4 translocation data were analysed by using the two-sided two-sample Student t-test assuming unequal variances."}
{"smiles": "CC(O)CC(=O)O", "note": "(stereo not shown) [3-hydroxybutyric acid]", "values": [{"measurement": "Epithelial barrier intactness: translocation of FITC-labeled dextran (FD4) from apical to basolateral compartment relative to control +ve (FIG. 6)", "value": "protect the barrier against inflammation-induced epithelial barrier hyperpermeability"}]}
